{"source": "patent US10981914B2", "about": "“Toll-like receptor 7 (TLR7) agonists having a tricyclic moiety, conjugates thereof, and methods and uses therefor” (BRISTOL-MYERS SQUIBB COMPANY, priority 2017, dated 2021)", "origin": "cited, not measured here", "tested_on": "IFN-α", "conditions": "as measured by IFN-α induction", "data": [{"smiles": "CCCCOc1nc(N)c2c(n1)N(Cc1cccc(CN3CCCC3)c1)CC(=O)N2", "note": "[Vesatolimod, vesatolimod]", "values": [{"measurement": "potency, fold less than that of the corresponding purine-8-one compound", "value": 100, "unit": "×"}]}]}
